We go through eight molecules from publication PMC5794489 (Biochemical pharmacology, 2017).

For assay [1], the target named is T1, human GLP-1R (Homo sapiens, UniProt P43220). In words: ERK1/2 phosphorylation. The class given is cell-based. The settings on record: read-out: pERK1/2 Emax.
Assay [2] relates to human GLP-1R. Kind of assay: Stimulus bias, operational model of agonism, Δlog. The class given is cell-based. The note with it: bias relative to GLP-1; FlpInCHO; mean ± SEM, three to four experiments.
For assay [3], the target named is T1, human GLP-1R. Kind of assay: β-Arrestin-2 recruitment BRET assay. The note with it: for Emax: read-out: β-Arrestin-2 Emax; for β-arrestin-2 recruitment, result in words: FlpInCHO BRET, native β-arrestin-2.
Assay [4] deals with T1, human GLP-1R. Kind of assay: Intracellular calcium mobilization. The settings on record: for Emax: read-out: iCa2+ Emax. It counts as cell-based.
The target in assay [5] is T1, human GLP-1R. Kind of assay: β-Arrestin-1 recruitment BRET assay. The note with it: for Emax: read-out: β-Arrestin-1 Emax.
Assay [6] addresses T1, human GLP-1R. In words: Radioligand competition binding on whole GLP-1R FlpInCHO cells. The note with it: GLP-1R in FlpIn CHO cells.
For assay [7], the target named is T1, human GLP-1R. In words: cAMP accumulation in GLP-1R FlpInCHO cells. It counts as cell-based. The settings on record: Flp-In-CHO, read-out: cAMP Emax.
The subject of assay [8] is human GLP-1R. The note with it: FlpIn CHO cells; cited from earlier work.

“Also recorded” adds a separate entry of the source. *1 amine or outer side, *2 acyl side, *3 side chain or, on linkers, in order; H or OH if unused. Where a SMILES comes first, the peptide text is derived from it. [ ]: non-standard residue; d: D form. X1 = O=C([C@H]1CCC[C@@H]1N[*:1])[*:2]; X2 = O=C([C@H]1CNC[C@@H]1N[*:1])[*:2]; Aib = CC(C)(N)C(=O)O

T1 sequence (P43220 24-463): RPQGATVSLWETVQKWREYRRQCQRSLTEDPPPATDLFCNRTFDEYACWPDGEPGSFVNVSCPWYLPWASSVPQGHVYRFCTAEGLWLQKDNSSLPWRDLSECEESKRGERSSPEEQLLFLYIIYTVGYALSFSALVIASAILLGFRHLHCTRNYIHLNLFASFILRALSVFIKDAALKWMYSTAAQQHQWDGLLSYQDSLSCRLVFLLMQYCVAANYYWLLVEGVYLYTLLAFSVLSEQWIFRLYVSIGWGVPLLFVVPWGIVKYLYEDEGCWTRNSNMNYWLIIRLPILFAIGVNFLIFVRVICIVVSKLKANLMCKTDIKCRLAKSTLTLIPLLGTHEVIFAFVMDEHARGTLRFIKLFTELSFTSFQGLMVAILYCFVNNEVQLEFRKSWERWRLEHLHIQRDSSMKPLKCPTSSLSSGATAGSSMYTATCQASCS

In the case of `CC[C@H](C)[C@H](NC(=O)[C@H](Cc1ccccc1)NC(=O)[C@H](CCC(=O)O)NC(=O)[C@H]1CNC[C@@H]1NC(=O)[C@H](C)NC(=O)[C@H](C)NC(=O)[C@H](CCC(N)=O)NC(=O)CNC(=O)[C@H](CCC(=O)O)NC(=O)[C@H](CC(C)C)NC(=O)[C@H](Cc1ccc(O)cc1)NC(=O)[C@H](CO)NC(=O)[C@H](CO)NC(=O)[C@@H](NC(=O)[C@H](CC(=O)O)NC(=O)[C@H](CO)NC(=O)[C@@H](NC(=O)[C@H](Cc1ccccc1)NC(=O)[C@@H](NC(=O)CNC(=O)[C@H](CCC(=O)O)NC(=O)[C@H](C)NC(=O)[C@@H](N)Cc1c[nH]cn1)[C@@H](C)O)[C@@H](C)O)C(C)C)C(=O)N[C@H]1CCC[C@@H]1C(=O)N[C@@H](Cc1c[nH]c2ccccc12)C(=O)N[C@@H](CC(C)C)C(=O)N[C@H](C(=O)N[C@H]1CNC[C@@H]1C(=O)NCC(=O)N[C@@H](CCCNC(=N)N)C(=O)NCC(N)=O)C(C)C` [P1] (H-HAEGTFTSDVSSYLEGQAA[X2]EFI[X1]WLV[X2]GRG-NH2), the Emax in assay [1] stood at 112 ± 8%. In addition, in assay [2], the “Δlog(τ/KA) Ca2+ vs cAMP” value is listed as 0.4 ± 0.1, the “Δlog(τ/KA) pERK1/2 vs cAMP” value was determined as 0.5 ± 0.2, the “Δlog(τ/KA) βArr1 vs Ca2+” value is on record as −0.1 ± 0.2 and the “Δlog(τ/KA) βArr1 vs cAMP” value came to 0.4 ± 0.1. In assay [2], the “Δlog(τ/KA) βArr1 vs pERK1/2” value is recorded as 0.0 ± 0.2, the “Δlog(τ/KA) βArr2 vs Ca2+” value is on record as −0.2 ± 0.2, the “Δlog(τ/KA) βArr2 vs cAMP” value was 0.5 ± 0.2 and the “Δlog(τ/KA) βArr2 vs pERK1/2” value was −0.1 ± 0.3. The Emax in assay [3] is 108 ± 5%. The Emax in assay [4] turned out to be 89 ± 8%. Also, the Emax in assay [5] came to 85 ± 7%.

With `CC[C@H](C)[C@H](NC(=O)[C@H](Cc1ccccc1)NC(=O)[C@H](CCC(=O)O)NC(=O)[C@H]1CNC[C@@H]1NC(=O)[C@H](C)NC(=O)[C@H](C)NC(=O)[C@H](CCC(N)=O)NC(=O)[C@H]1CCC[C@@H]1NC(=O)[C@H](CCC(=O)O)NC(=O)[C@H](CC(C)C)NC(=O)[C@H](Cc1ccc(O)cc1)NC(=O)[C@H]1CCC[C@@H]1NC(=O)[C@H](CO)NC(=O)[C@@H](NC(=O)[C@H](CC(=O)O)NC(=O)[C@H](CO)NC(=O)[C@@H](NC(=O)[C@H](Cc1ccccc1)NC(=O)[C@@H](NC(=O)CNC(=O)[C@H](CCC(=O)O)NC(=O)[C@H](C)NC(=O)[C@@H](N)Cc1c[nH]cn1)[C@@H](C)O)[C@@H](C)O)C(C)C)C(=O)N[C@H]1CCC[C@@H]1C(=O)N[C@@H](Cc1c[nH]c2ccccc12)C(=O)N[C@@H](CC(C)C)C(=O)N[C@H](C(=O)N[C@H]1CNC[C@@H]1C(=O)NCC(=O)N[C@@H](CCCNC(=N)N)C(=O)NCC(N)=O)C(C)C` [P3], in assay [2], the “Δlog(τ/KA) βArr1 vs pERK1/2” value is −0.1 ± 0.3, the “Δlog(τ/KA) βArr2 vs cAMP” value is 0.5 ± 0.3 and the “Δlog(τ/KA) βArr2 vs pERK1/2” value was −0.6 ± 0.2.

With `CC[C@H](C)[C@H](NC(=O)[C@H](Cc1ccccc1)NC(=O)[C@H](CCC(=O)O)NC(=O)[C@H]1CNC[C@@H]1NC(=O)[C@H](C)NC(=O)[C@H](C)NC(=O)[C@H](CCC(N)=O)NC(=O)[C@H]1CCC[C@@H]1NC(=O)[C@H](CCC(=O)O)NC(=O)[C@H](CC(C)C)NC(=O)[C@H](Cc1ccc(O)cc1)NC(=O)[C@H]1CCC[C@@H]1NC(=O)[C@H](CO)NC(=O)C(C)(C)NC(=O)[C@H](CC(=O)O)NC(=O)[C@H](CO)NC(=O)[C@@H](NC(=O)[C@H](Cc1ccccc1)NC(=O)[C@@H](NC(=O)CNC(=O)[C@H](CCC(=O)O)NC(=O)C(C)(C)NC(=O)[C@@H](N)Cc1c[nH]cn1)[C@@H](C)O)[C@@H](C)O)C(=O)N[C@H]1CCC[C@@H]1C(=O)N[C@@H](Cc1c[nH]c2ccccc12)C(=O)N[C@@H](CC(C)C)C(=O)N[C@H](C(=O)N[C@H]1CNC[C@@H]1C(=O)NCC(=O)N[C@@H](CCCNC(=N)N)C(=O)NCC(N)=O)C(C)C` [P4] (H-H[Aib]EGTFTSD[Aib]S[X1]YLE[X1]QAA[X2]EFI[X1]WLV[X2]GRG-NH2), the Emax in assay [1] came to 81 ± 8%; in assay [4] it was 90 ± 40%; in assay [7], 97 ± 7%. For the same molecule, the “Δlog(τ/KA) Ca2+ vs cAMP” value in assay [2] is reported as −0.2 ± 0.2. In assay [6], the “further reduction in affinity relative to other α/β-peptides in this set” value came to 10 fold. Moreover, in assay [3], the “β-arrestin-2 recruitment, result in words” value (from here on “β-arrestin-2 recruitment”) is “weak β-arrestin-2 responses; also recorded: no measurable signal”. The “β-arrestin-1 recruitment, result in words” value in assay [5] (FlpInCHO BRET) is “no measurable signal”.

Turning to `CC[C@H](C)[C@H](NC(=O)[C@H](Cc1ccccc1)NC(=O)[C@H](CCC(=O)O)NC(=O)[C@H](CCCCN)NC(=O)[C@H](C)NC(=O)[C@H](C)NC(=O)[C@H](CCC(N)=O)NC(=O)CNC(=O)[C@H](CCC(=O)O)NC(=O)[C@H](CC(C)C)NC(=O)[C@H](Cc1ccc(O)cc1)NC(=O)[C@H](CO)NC(=O)[C@H](CO)NC(=O)C(C)(C)NC(=O)[C@H](CC(=O)O)NC(=O)[C@H](CO)NC(=O)[C@@H](NC(=O)[C@H](Cc1ccccc1)NC(=O)[C@@H](NC(=O)CNC(=O)[C@H](CCC(=O)O)NC(=O)C(C)(C)NC(=O)[C@@H](N)Cc1c[nH]cn1)[C@@H](C)O)[C@@H](C)O)C(=O)N[C@@H](C)C(=O)N[C@@H](Cc1c[nH]c2ccccc12)C(=O)N[C@@H](CC(C)C)C(=O)N[C@H](C(=O)N[C@@H](CCCCN)C(=O)NCC(=O)N[C@@H](CCCNC(=N)N)C(=O)NCC(N)=O)C(C)C` [P6], the Emax in assay [1] came out at 80 ± 7%. Besides, in assay [2], the “Δlog(τ/KA) Ca2+ vs cAMP” value is −0.1 ± 0.2, the “Δlog(τ/KA) pERK1/2 vs cAMP” value was determined as 0.1 ± 0.2, the “Δlog(τ/KA) βArr1 vs cAMP” value was 0.4 ± 0.1 and the “Δlog(τ/KA) βArr1 vs pERK1/2” value came to 0.5 ± 0.3. In addition, in assay [2], the “Δlog(τ/KA) βArr2 vs Ca2+” value was found to be 0.0 ± 0.2, the “Δlog(τ/KA) βArr2 vs cAMP” value is on record as −0.1 ± 0.2 and the “Δlog(τ/KA) βArr2 vs pERK1/2” value was −0.3 ± 0.2. For the same molecule, the Emax in assay [3] is 82 ± 5%. Further, the Emax in assay [4] is 78 ± 5%. Further, the Emax in assay [5] turned out to be 72 ± 4%.

As to `CC[C@H](C)[C@H](NC(=O)[C@H](Cc1ccccc1)NC(=O)[C@H](CCC(=O)O)NC(=O)[C@H]1CNC[C@@H]1NC(=O)[C@H](C)NC(=O)[C@H](C)NC(=O)[C@H](CCC(N)=O)NC(=O)[C@H]1CCC[C@@H]1NC(=O)[C@H](CCC(=O)O)NC(=O)[C@H](CC(C)C)NC(=O)[C@H](Cc1ccc(O)cc1)NC(=O)[C@H]1CCC[C@@H]1NC(=O)[C@H](CO)NC(=O)[C@@H](NC(=O)[C@H](CC(=O)O)NC(=O)[C@H](CO)NC(=O)[C@@H](NC(=O)[C@H](Cc1ccccc1)NC(=O)[C@@H](NC(=O)CNC(=O)[C@H](CCC(=O)O)NC(=O)[C@H](C)NC(=O)[C@@H](N)Cc1c[nH]cn1)[C@@H](C)O)[C@@H](C)O)C(C)C)C(=O)N[C@@H](C)C(=O)N[C@@H](Cc1c[nH]c2ccccc12)C(=O)N[C@@H](CC(C)C)C(=O)N[C@H](C(=O)N[C@@H](CCCCN)C(=O)NCC(=O)N[C@@H](CCCNC(=N)N)C(=O)NCC(N)=O)C(C)C` [P8] (H-HAEGTFTSDVS[X1]YLE[X1]QAA[X2]EFIAWLVKGRG-NH2), in assay [1], the Emax was found to be 80 ± 8%. Also, in assay [2], the “Δlog(τ/KA) pERK1/2 vs cAMP” value came to 0.7 ± 0.3 and the “Δlog(τ/KA) βArr1 vs pERK1/2” value amounted to 0.0 ± 0.3. In addition, the “reduction in affinity relative to GLP-1” value in assay [6] is ~ 10 fold. For the same molecule, in assay [3], the “β-arrestin-2 recruitment” value is recorded as “weak β-arrestin-2 responses”. Also, in assay [7], the Emax was 83 ± 5%.

Turning to `CC[C@H](C)[C@H](NC(=O)[C@H](Cc1ccccc1)NC(=O)[C@H](CCC(=O)O)NC(=O)[C@H]1CNC[C@@H]1NC(=O)[C@H](C)NC(=O)[C@H](C)NC(=O)[C@H](CCC(N)=O)NC(=O)[C@H]1CCC[C@@H]1NC(=O)[C@H](CCC(=O)O)NC(=O)[C@H](CC(C)C)NC(=O)[C@H](Cc1ccc(O)cc1)NC(=O)[C@H]1CCC[C@@H]1NC(=O)[C@H](CO)NC(=O)[C@@H](NC(=O)[C@H](CC(=O)O)NC(=O)[C@H](CO)NC(=O)[C@@H](NC(=O)[C@H](Cc1ccccc1)NC(=O)[C@@H](NC(=O)CNC(=O)[C@H](CCC(=O)O)NC(=O)[C@H](C)NC(=O)[C@@H](N)Cc1c[nH]cn1)[C@@H](C)O)[C@@H](C)O)C(C)C)C(=O)N[C@H]1CCC[C@@H]1C(=O)N[C@@H](Cc1c[nH]c2ccccc12)C(=O)N[C@@H](CC(C)C)C(=O)N[C@H](C(=O)N[C@@H](CCCCN)C(=O)NCC(=O)N[C@@H](CCCNC(=N)N)C(=O)NCC(N)=O)C(C)C` [P9] (H-HAEGTFTSDVS[X1]YLE[X1]QAA[X2]EFI[X1]WLVKGRG-NH2), the values for the Emax in assay [1] and in assay [7] were 73 ± 9% and 107 ± 5%, respectively. Further, the “Δlog(τ/KA) βArr1 vs pERK1/2” value in assay [2] was −0.1 ± 0.5. Besides, the “reduction in affinity relative to GLP-1” value in assay [6] is given as ~ 10 fold. The “β-arrestin-2 recruitment” value in assay [3] was “weak β-arrestin-2 responses”. Besides, in assay [4] (FlpIn CHO human GLP-1R), the “calcium mobilization, result in words” value was “essentially abolished calcium mobilization”.

Consider exendin-4, for which the “bias ERK1/2 phosphorylation over cAMP accumulation, in words” value in assay [8] is “does not exhibit bias toward ERK1/2 phosphorylation”.

“oxyntomodulin (HSQGTFTSDYSKYLDSRRAQDFVQWLMNTKRNRNNIA; Oxyntomodulin; UniProt P01275 53-89, looked up)”: the “bias ERK1/2 phosphorylation over cAMP accumulation, in words” value in assay [8] is on record as “biases the GLP-1R toward ERK1/2 phosphorylation over cAMP accumulation”.
